Experimental data reported in ChEMBL document CHEMBL1145713, “Cyclic peptides from higher plants. 34. Segetalins G and H, structures and estrogen-like activity of cyclic pentapeptides from Vaccaria segetalis” (1997).
Peptide text beside a SMILES is read from it.

test system: Rattus norvegicus; assay: Estrogen-like activity in ovariectomized SD rat assessed as increase in uterus weight at 2.5 mg/kg, sc administered daily for 14 days; format: functional; settings: route subcutaneous

SMILES | Activity [mg]
CC(C)[C@@H]1NC(=O)[C@@H]2CCCN2C(=O)[C@H](C(C)C)NC(=O)CNC(=O)[C@H](C)NC(=O)[C@H](Cc2c[nH]c3ccccc23)NC1=O [SEGETALIN A] (cyclo(AGVPVW)) | 54.4
CC(C)[C@@H]1NC(=O)CNC(=O)[C@H](C)NC(=O)[C@H](Cc2ccc(O)cc2)NC(=O)[C@H](CCCCN)NC1=O [SEGETALIN G] (cyclo(AGVKY)) | 51.2
CC(C)[C@@H]1NC(=O)CNC(=O)[C@H](C)NC(=O)[C@H](Cc2c[nH]c3ccccc23)NC(=O)[C@H](C)NC1=O [SEGETALIN B] (cyclo(AGVAW)) | 56.3
N=C(N)NCCC[C@@H]1NC(=O)[C@H](Cc2ccc(O)cc2)NC(=O)CNC(=O)[C@H](CO)NC(=O)[C@H](Cc2ccccc2)NC1=O [SEGETALIN H] (cyclo(FSGYR)) | 54.8
